Source: ChEMBL document CHEMBL6134901 (J Med Chem, 2025)
In brackets after ≈: the same amount, converted by molar mass.

Key:
Clostridioides difficile [1] = experiment: Antibacterial activity against Clostridium difficile ATTC43255 assessed as spore germination inhibition at 45 uM incubated for 60 mins by spectrometry relative to control; assay type: functional; conditions: ATTC43255, 1 h
Clostridioides difficile [2] = experiment: Antibacterial activity against Clostridium difficile ATTC43255 incubated for 24 to 48 hrs anaerobically by colony counting method; assay type: functional; conditions: time 24-48 hrs
Clostridioides difficile [3] = experiment: Antibacterial activity against Clostridium difficile ATTC43255 assessed as spore germination inhibition incubated for 60 mins by spectrometry; assay type: functional, organism-based; conditions: ATTC43255, 1 h
[4] = Cytotoxicity against human HepG2 cells incubated for 24 hrs by XTT assay; assay type: toxicity, cell-based; conditions: read-out: LD50
[5] = Selectivity index, ratio of LD50 for cytotoxicity against human HepG2 cells to IC50 for antibacterial activity against Clostridium difficile ATTC43255 assessed as spore germination inhibition; assay type: toxicity, cell-based; conditions: read-out: Ratio LD50/IC50
Clostridioides difficile [6] = experiment: Antibacterial activity against metronidazole-resistant Clostridium difficile […] clinical isolate; assay type: functional
Clostridioides difficile [7] = experiment: Antibacterial activity against Clostridium difficile RMA23828; assay type: functional
Bacteroides fragilis = experiment: Antibacterial activity against Bacteroides fragilis HM-709; assay type: functional
Veillonella = experiment: Antibacterial activity against Veillonella sp. HM-49; assay type: functional
Fusobacterium nucleatum = experiment: Antibacterial activity against methicillin/oxacillin/tetracycline-resistant mecA-positive Fusobacterium nucleatum HM-992; assay type: functional
[8] = system: Limosilactobacillus reuteri; experiment: Antibacterial activity against vancomycin-susceptible Lactobacillus reuteri HM-102 clinical isolate; assay type: functional
Bifidobacterium longum = experiment: Antibacterial activity against Bifidobacterium longum HM-846; assay type: functional
Klebsiella pneumoniae = experiment: Antibacterial activity against Klebsiella pneumoniae ATCC 700603; assay type: functional
Acinetobacter baumannii = experiment: Antibacterial activity against Acinetobacter baumannii ATCC 17961; assay type: functional
Pseudomonas aeruginosa = experiment: Antibacterial activity against Pseudomonas aeruginosa ATCC 27853; assay type: functional
Klebsiella aerogenes = experiment: Antibacterial activity against Enterobacter aerogenes ATCC 35029; assay type: functional
Escherichia coli = experiment: Antibacterial activity against Escherichia coli ATCC 25922; assay type: functional
Staphylococcus aureus = experiment: Antibacterial activity against vancomycin-resistant Staphylococcus aureus VRS1 clinical isolate; assay type: functional
Enterococcus faecalis = experiment: Antibacterial activity against Enterococcus faecalis ATCC 29212; assay type: functional
Enterococcus faecium = experiment: Antibacterial activity against vancomycin-resistant Enterococcus faecium 106 clinical isolate; assay type: functional

Structure (SMILES)	inhibition at 45 µM (Clostridioides difficile [1])	other results
Cl.NCc1ccc(-c2nc(-c3ccc(I)cc3)no2)cc1	51%	MIC (Clostridioides difficile [2]): 8 µg/mL; IC50 (Clostridioides difficile [3]): 37 µM; CC50 at 24 h [4]: 39 µg/mL; selectivity ratio [5]: 3
CCN(CC)CCc1nc(-c2ccccc2)no1	< 10%	
NCc1ccc(-c2nc(-c3ccnc(N4CCCC4)c3)no2)cc1	13%	
FC(F)(F)c1ccc(Oc2ccc(-c3noc(-c4n[nH]cc4NC4CCCC4)n3)cc2)cc1	< 10%	
Oc1ccc(-c2nc(-c3ccc(N4CCOCC4)cc3)no2)cc1	< 10%	
Oc1ccc(-c2nc(-c3ccc4c(c3)OCO4)no2)cc1	< 10%	
CS(=O)(=O)Nc1ccc(-c2nc(-c3ccc(OC4CCCC4)cc3)no2)cc1	< 10%	
c1cc2cc(-c3nc(-c4ccc(OC5CCCC5)cc4)no3)ccc2[nH]1	< 10%	
CCCCOc1ccc(-c2noc(-c3ccc(CNC(=O)OC(C)(C)C)cc3)n2)cc1	< 10%	
Oc1ccc(-c2nc(-c3ccc(Oc4ccc(C(F)(F)F)cc4)cc3)no2)cc1O	< 10%	
COc1cc(-c2nc(-c3ccc(Oc4ccc(C(F)(F)F)cc4)cc3)no2)ccc1O	< 10%	
Oc1ccc(-c2nc(-c3ccc(O[C@@H]4CCNC4)cc3)no2)cc1	< 10%	
O=C(O)c1ccc(-c2nc(-c3ccc(OC4CCCC4)cc3)no2)cc1	< 10%	
CC(C)(C)OC(=O)NCc1ccc(-c2nc(-c3ccc(Oc4ccc(C(F)(F)F)cc4)cc3)no2)cc1	< 10%	
NCc1ccc(-c2nc(-c3ccc(Oc4ccc(C(F)(F)F)cc4)cn3)no2)cc1	24%	
O=[N+]([O-])c1ccccc1Oc1ccc(-c2noc(-c3ccc(O)cc3)n2)cc1	21%	
COc1ccc(-c2nc(-c3ccc(OC4CCCC4)cc3)no2)cc1	< 10%	
CS(=O)(=O)Nc1ccc(Cc2noc(-c3ccc4[nH]cc(CCN)c4c3)n2)cc1 [L-694247]	< 10%	
CC(C)(C)Oc1ccc(-c2noc(-c3ccc(O)cc3)n2)cc1	< 10%	
CC(C)Oc1ccc(-c2nc(-c3cccc4c3CC[C@@H]4NCCO)no2)cc1C#N.Cl [OZANIMOD HYDROCHLORIDE]	62%	MIC (Clostridioides difficile [2]): 64 µg/mL; IC50 (Clostridioides difficile [3]): 39 µM; CC50 at 24 h [4]: 46 µg/mL; selectivity ratio [5]: 3
CC(C)(C)OC(=O)NCc1ccc(-c2nc(-c3ccc(OC4CCCC4)cc3)no2)cc1	< 10%	
O=Cc1ccc(-c2noc(-c3ccc(O)cc3)n2)cc1	< 10%	
FC(F)(F)c1ccc(Oc2ccc(-c3noc(-c4nc[nH]n4)n3)cc2)cc1	< 10%	
Nc1ccc(-c2nc(-c3ccc(OC4CCCC4)cc3)no2)cc1	< 10%	
Oc1ccc(-c2nc(-c3ccc(OC4CCC4)cc3)no2)cc1	< 10%	
FC(F)(F)c1ccc(Oc2ccc(-c3noc(-c4ccncc4)n3)cc2)cc1	< 10%	
Oc1ccc(-c2nc(N3CCN(c4ccccc4)CC3)no2)cc1	18%	

Structure (SMILES)	inhibition at 45 µM (Clostridioides difficile [1])	other results
CCCOc1ccc(-c2noc(-c3ccc(O)cc3)n2)cc1	< 10%	
NCCc1ccc(Oc2cc(-c3noc(-c4ccc(CN)cc4)n3)ccn2)cc1	27%	
Clc1c[nH]nc1-c1nc(-c2ccc(OC3CCCC3)cc2)no1	< 10%	
O=C(Nc1c[nH]nc1-c1nc(-c2ccc(Oc3ccc(C(F)(F)F)cc3)cc2)no1)c1ccccn1	< 10%	
FC(F)(F)c1ccc(Oc2ccc(-c3noc(-c4n[nH]cc4Cl)n3)cc2)cc1	< 10%	
FC(F)(F)c1ccc(Oc2ccc(-c3noc(-c4cn[nH]n4)n3)cc2)cc1	< 10%	
N#Cc1ccc(-c2nc(-c3ccc(Oc4ccc(F)cc4)cc3)no2)cc1	< 10%	
CN[C@H](CC(C)C)C(=O)N[C@H]1C(=O)N[C@@H](CC(N)=O)C(=O)N[C@H]2C(=O)N[C@H]3C(=O)N[C@H](C(=O)N[C@H](C(=O)O)c4cc(O)cc(O)c4-c4cc3ccc4O)[C@H](O)c3ccc(c(Cl)c3)Oc3cc2cc(c3O[C@@H]2O[C@H](CO)[C@@H](O)[C@H](O)[C@H]2O[C@H]2C[C@](C)(N)[C@H](O)[C@H](C)O2)Oc2ccc(cc2Cl)[C@H]1O [VANCOMYCIN]		MIC (Clostridioides difficile [6]): 0.25 µg/mL (≈ 0.173 µM); MIC (Clostridioides difficile [7]): 0.5 µg/mL (≈ 0.345 µM); MIC (Bacteroides fragilis): 16 µg/mL (≈ 11 µM); MIC (Veillonella): > 32 µg/mL; MIC (Fusobacterium nucleatum): 0.25 µg/mL (≈ 0.173 µM); MIC [8]: > 32 µg/mL; MIC (Bifidobacterium longum): 0.25 µg/mL (≈ 0.173 µM); MIC (Klebsiella pneumoniae): > 128 µg/mL; MIC (Acinetobacter baumannii): > 128 µg/mL; MIC (Pseudomonas aeruginosa): > 128 µg/mL; MIC (Klebsiella aerogenes): > 128 µg/mL; MIC (Escherichia coli): > 128 µg/mL; MIC (Staphylococcus aureus): 64 µg/mL (≈ 44.2 µM); MIC (Enterococcus faecalis): 2 µg/mL (≈ 1.38 µM); MIC (Enterococcus faecium): > 16 µg/mL
Nc1cncc(-c2nc(-c3ccc(Oc4ccc(C(F)(F)F)cc4)cc3)no2)c1	< 10%	
COC(OC)c1ccc(-c2noc(-c3ccc(O)cc3)n2)cc1	< 10%	
FC(F)(F)c1ccc(Oc2ccc(-c3noc(-c4n[nH]cc4Br)n3)cc2)cc1	< 10%	
NCc1ccc(-c2nc(-c3ccc(OC(F)(F)F)cc3)no2)cc1	33%	
O=C1C[C@H](c2nc(-c3ccc(Oc4ccc(C(F)(F)F)cc4)cc3)no2)CN1	< 10%	
Oc1ccc(-c2nc(-c3ccc(C(O)C(F)(F)F)cc3)no2)cc1 (stereo unspecified)	< 10%	
N#Cc1ccc(Oc2ccc(-c3noc(-c4ccc(O)cc4)n3)cc2)cc1	< 10%	
NCc1ccc(-c2nc(-c3ccc(CN4CCCC4)cc3)no2)cc1	< 10%	
CC(C)Oc1ncc(-c2nc(-c3cccc4c3CCC4NCCC(=O)O)no2)cc1C#N (stereo unspecified)	< 10%	
c1cc(-c2noc(-c3ccc4c(c3)CCN4)n2)ccc1OC1CCCC1	< 10%	
Nc1c[nH]nc1-c1nc(-c2ccc(Oc3ccc(C(F)(F)F)cc3)cc2)no1	< 10%	
COc1ccc(-c2noc(-c3ccc(O)cc3)n2)cc1OC	< 10%	
CCCOc1ccc(-c2noc(-c3ccc(CN)cc3)n2)cc1	12%	
NCc1ccc(-c2nc(-c3ccc(OC4CCCCC4)cc3)no2)cc1	43%	
Cl.NCc1ccc(-c2nc(-c3ccc(Oc4ccc(F)cc4)cc3)no2)cc1	60%	MIC (Clostridioides difficile [2]): 16 µg/mL; IC50 (Clostridioides difficile [3]): 45 µM; CC50 at 24 h [4]: 38 µg/mL; selectivity ratio [5]: 2
NCCCOc1ccc(-c2noc(-c3ccc(O)cc3)n2)cc1	< 10%	
CCOc1ccc(-c2nc(-c3cccc4c3CCC4NCCO)no2)cc1OCC (stereo unspecified)	< 10%	
O=[N+]([O-])c1cn(CCO)c(-c2nc(-c3ccc(OC4CCCC4)cc3)no2)n1	< 10%	
NCc1ccc(-c2nc(-c3ccc(OC4CC4)cc3)no2)cc1	12%	

Structure (SMILES)	inhibition at 45 µM (Clostridioides difficile [1])	other results
Oc1ccc(-c2nc(-c3ccc(Oc4ccc(C(F)(F)F)cc4)cc3)no2)cc1F	14%	
N#Cc1ccc(-c2nc(-c3ccc(OC4CCCC4)cc3)no2)cc1	< 10%	
Oc1ccc(-c2noc(-c3ccc(O)cc3)n2)cc1	< 10%	
OCC#Cc1c[nH]nc1-c1nc(-c2ccc(Oc3ccc(C(F)(F)F)cc3)cc2)no1	< 10%	
Oc1ccc(-c2nc(-c3ccc(Oc4ccc(C(F)(F)F)cc4)cc3)no2)cn1	< 10%	
FC(F)(F)c1ccc(Oc2ccc(-c3noc(-c4n[nH]cc4NC4CCCCC4)n3)cc2)cc1	< 10%	
FC(F)(F)c1ccc(Oc2ccc(-c3noc(-c4cn[nH]c4)n3)cc2)cc1	< 10%	
NCCCCc1nc(-c2ccc(Oc3ccc(F)cc3)cc2)no1	< 10%	
CC(C)(C)OC(=O)NCc1ccc(-c2nc(-c3ccc(Oc4ccc(F)c(F)c4)cc3)no2)cc1	< 10%	
NCCCCc1nc(-c2ccc(OC3CCCC3)cc2)no1	< 10%	
Oc1ccc(-c2nc(-c3ccc(Oc4ccc(I)cc4)cc3)no2)cc1	39%	
FC(F)(F)c1ccc(Oc2ccc(-c3noc(-c4cc5ccccc5[nH]4)n3)cc2)cc1	< 10%	
c1nc2cc(-c3nc(-c4ccc(OC5CCCC5)cc4)no3)ccc2[nH]1	< 10%	
FC(F)(F)c1ccc(Oc2ccc(-c3noc(-c4ccc(Br)cc4)n3)cc2)cc1	< 10%	
C[C@@H](N)c1nc(-c2ccc(OC3CCCC3)cc2)no1	< 10%	
FC(F)(F)c1ccc(Oc2ccc(-c3noc(-c4ccc5[nH]ccc5c4)n3)cc2)cc1	< 10%	
Oc1ccc(-c2nc(-c3ccc(Oc4ccccc4CBr)cc3)no2)cc1	27%	
Nc1ccc(-c2noc(-c3ccc(O)cc3)n2)cc1	< 10%	
Oc1ccc(-c2nc(-c3ccc4oc5ccc(F)cc5c4c3)no2)cc1	< 10%	
FC(F)(F)c1ccc(Oc2ccc(-c3noc(-c4n[nH]c5ccccc45)n3)cc2)cc1	< 10%	
NCc1ccc(-c2nc(-c3ccc(OC(F)F)cc3)no2)cc1	< 10%	
FC(F)(F)c1ccc(Oc2ccc(-c3noc(-c4c[nH]c5ncccc45)n3)cc2)cc1	< 10%	
O=[N+]([O-])c1cc(Oc2ccc(C(F)(F)F)cc2)cnc1-c1noc(-c2ccc(O)cc2)n1	< 10%	
Nc1cc(Oc2ccccc2)ccc1-c1noc(-c2ccc(O)cc2)n1	17%	
CCCCNc1c[nH]nc1-c1nc(-c2ccc(Oc3ccc(C(F)(F)F)cc3)cc2)no1	< 10%	
COc1ccc(-c2nc(-c3ccc(Oc4ccc(C(F)(F)F)cc4)cc3)no2)cc1[N+](=O)[O-]	< 10%	
